According to ChEMBL document CHEMBL4406836, “The design of a cell-selective fowlicidin-1-derived peptide with both antimicrobial and anti-inflammatory activities” (Eur J Med Chem, 2019):
Calls of active or inactive are those of the source. The calls are words filed in the database; no cut-off is given here.

Legend:
Pseudomonas aeruginosa [1] = experiment: Antibacterial activity against multidrug-resistant Pseudomonas aeruginosa CCARM 2095 assessed as reduction in bacterial growth at 4 uM incubated for 72 hrs in presence of chloramphenicol by spectrophotometry; type: functional; conditions: CCARM 2095, 72 h
Pseudomonas aeruginosa [2] = experiment: Antibacterial activity against multidrug-resistant Pseudomonas aeruginosa CCARM 2095 assessed as reduction in bacterial growth at 4 uM incubated for 72 hrs in presence of ciprofloxacin by spectrophotometry; type: functional; conditions: CCARM 2095, 72 h
Pseudomonas aeruginosa [3] = experiment: Antibacterial activity against multidrug-resistant Pseudomonas aeruginosa CCARM 2095 assessed as reduction in bacterial growth at 4 uM incubated for 72 hrs in presence of oxacillin by spectrophotometry; type: functional; conditions: CCARM 2095, 72 h
Staphylococcus aureus [4] = experiment: Antibacterial activity against methicillin-resistant Staphylococcus aureus CCARM 3089 assessed as reduction in bacterial growth at 8 uM incubated for 72 hrs in presence of chloramphenicol by spectrophotometry; type: functional; conditions: CCARM 3089, 72 h
Staphylococcus aureus [5] = experiment: Antibacterial activity against methicillin-resistant Staphylococcus aureus CCARM 3089 assessed as reduction in bacterial growth at 8 uM incubated for 72 hrs in presence of oxacillin by spectrophotometry; type: functional; conditions: CCARM 3089, 72 h
Escherichia coli [6] = experiment: Antibacterial activity against Escherichia coli KCTC 1682 assessed as reduction in bacterial growth incubated for 18 hrs by spectrophotometry based microtiter broth dilution method; type: functional; conditions: KCTC 1682, 18 h
Pseudomonas aeruginosa [7] = experiment: Antibacterial activity against Pseudomonas aeruginosa KCTC 1637 assessed as reduction in bacterial growth incubated for 18 hrs by spectrophotometry based microtiter broth dilution method; type: functional; conditions: KCTC 1637, 18 h
Bacillus subtilis = experiment: Antibacterial activity against Bacillus subtilis KCTC 3068 assessed as reduction in bacterial growth incubated for 18 hrs by spectrophotometry based microtiter broth dilution method; type: functional; conditions: KCTC 3068, 18 h
[8] = test system: Staphylococcus epidermidis; experiment: Antibacterial activity against Staphylococcus epidermidis KCTC 1917 assessed as reduction in bacterial growth incubated for 18 hrs by spectrophotometry based microtiter broth dilution method; type: functional; conditions: KCTC 1917, 18 h
Erythrocyte = experiment: Hemolytic activity in sheep RBC assessed as minimal hemolytic concentration causing 10% hemolysis incubated for 2 hrs by ELISA; type: ADME, cell-based, Ovis aries
[9] = Therapeutic index, ratio of MHC10 for hemolytic activity in sheep RBC assessed as minimal hemolytic concentration causing 10% hemolysis to MIC for antibacterial activity; type: toxicity; conditions: sheep red blood cells
RAW264.7 = experiment: Antiinflammatory activity in mouse RAW264.7 cells assessed as reduction in LPS-induced NO production at 10 uM incubated for 48 hrs by Griess reagent based assay; type: functional, cell-based
Lipopolysaccharide (LPS) = experiment: Displacement of BODIPY-TR-cadaverine from Escherichia coli O111:B4 LPS at 16 uM by fluorescence spectrophotometry relative to control
Staphylococcus aureus [10] = experiment: Potency index, ratio of MIC of LL-37 to MIC of compound for antibacterial activity against methicillin-resistant Staphylococcus aureus CCARM 3090 assessed as reduction in bacterial growth incubated for 18 hrs by spectrophotometry based microtiter broth dilution method; type: functional
Staphylococcus aureus [11] = experiment: Potency index, ratio of MIC of melittin to MIC of compound for antibacterial activity against methicillin-resistant Staphylococcus aureus CCARM 3089 assessed as reduction in bacterial growth incubated for 18 hrs by spectrophotometry based microtiter broth dilution method; type: functional
Pseudomonas aeruginosa [12] = experiment: Potency index, ratio of MIC of melittin to MIC of compound for antibacterial activity against multidrug-resistant Pseudomonas aeruginosa CCARM 2109 assessed as reduction in bacterial growth incubated for 18 hrs by spectrophotometry based microtiter broth dilution method; type: functional
Escherichia coli [13] = experiment: Antibacterial activity against Escherichia coli KCTC 1682 assessed as reduction in bacterial growth incubated for 18 hrs in presence of 150 mM NaCl by spectrophotometry based microtiter broth dilution method; type: functional; conditions: KCTC 1682, 18 h
Escherichia coli [14] = experiment: Antibacterial activity against Escherichia coli KCTC 1682 assessed as reduction in bacterial growth incubated for 18 hrs in presence of 6 uM NH4Cl by spectrophotometry based microtiter broth dilution method; type: functional; conditions: KCTC 1682, 18 h
Escherichia coli [15] = experiment: Antibacterial activity against Escherichia coli KCTC 1682 assessed as reduction in bacterial growth incubated for 18 hrs in presence of 1 mM MgCl2 by spectrophotometry based microtiter broth dilution method; type: functional; conditions: KCTC 1682, 18 h
Escherichia coli [16] = experiment: Antibacterial activity against Escherichia coli KCTC 1682 assessed as reduction in bacterial growth incubated for 18 hrs in presence of 4 uM FeCl3 by spectrophotometry based microtiter broth dilution method; type: functional; conditions: KCTC 1682, 18 h
Staphylococcus aureus [17] = experiment: Antibacterial activity against Staphylococcus aureus KCTC 1621 assessed as reduction in bacterial growth incubated for 18 hrs in presence of 4.5 mM KCl by spectrophotometry based microtiter broth dilution method; type: functional; conditions: KCTC 1621, 18 h
Staphylococcus aureus [18] = experiment: Antibacterial activity against Staphylococcus aureus KCTC 1621 assessed as reduction in bacterial growth incubated for 18 hrs in presence of 2.5 mM CaCl2 by spectrophotometry based microtiter broth dilution method; type: functional; conditions: KCTC 1621, 18 h
Staphylococcus aureus [19] = experiment: Antibacterial activity against Staphylococcus aureus KCTC 1621 assessed as reduction in bacterial growth incubated for 18 hrs in presence of […] by spectrophotometry based microtiter broth dilution method; type: functional; conditions: KCTC 1621, 18 h
Staphylococcus aureus [20] = experiment: Antibacterial activity against Staphylococcus aureus KCTC 1621 assessed as reduction in bacterial growth incubated for 18 hrs in presence of 20% human serum by spectrophotometry based microtiter broth dilution method; type: functional; conditions: KCTC 1621, 18 h

`CC[C@H](C)[C@H](NC(=O)[C@H](CCCCN)NC(=O)[C@H](CCC(=O)O)NC(=O)[C@H](CCCCN)NC(=O)[C@H](CO)NC(=O)[C@H](CCCCN)NC(=O)[C@H](CCCNC(=N)N)NC(=O)[C@H](Cc1ccccc1)NC(=O)[C@H](Cc1ccccc1)NC(=O)[C@H](CC(=O)O)NC(=O)CNC(=O)[C@H](CC(C)C)NC(=O)[C@@H](N)CC(C)C)C(=O)NCC(=O)N[C@@H](CCCCN)C(=O)N[C@@H](CCC(=O)O)C(=O)N[C@@H](Cc1ccccc1)C(=O)N[C@@H](CCCCN)C(=O)N[C@@H](CCCNC(=N)N)C(=O)N[C@H](C(=O)N[C@H](C(=O)N[C@@H](CCC(N)=O)C(=O)N[C@@H](CCCNC(=N)N)C(=O)N[C@H](C(=O)N[C@@H](CCCCN)C(=O)N[C@@H](CC(=O)O)C(=O)N[C@@H](Cc1ccccc1)C(=O)N[C@@H](CC(C)C)C(=O)N[C@@H](CCCNC(=N)N)C(=O)N[C@@H](CC(N)=O)C(=O)N[C@@H](CC(C)C)C(=O)N[C@H](C(=O)N1CCC[C@H]1C(=O)N[C@@H](CCCNC(=N)N)C(=O)N[C@H](C(=O)N[C@@H](CCC(=O)O)C(=O)N[C@@H](CO)C(=O)O)[C@@H](C)O)C(C)C)[C@@H](C)CC)C(C)C)[C@@H](C)CC` [CATHELICIDIN] showed an MIC (Pseudomonas aeruginosa [1]) of 2 µM, an MIC (Pseudomonas aeruginosa [2]) of 2 µM and an MIC (Pseudomonas aeruginosa [3]) of 4 µM. The MIC (Staphylococcus aureus [4]) was 4 µM and the MIC (Staphylococcus aureus [5]) was 2 µM.

H-LVIRWVRAGYKLYRAIKKK-NH2 gave an MIC (Escherichia coli [6]) of 4 µM, an MIC (Pseudomonas aeruginosa [7]) of 8 µM and an MIC (Bacillus subtilis) of 2 µM. The MIC [8] was 4 µM, the MHC10 (Erythrocyte) was 105 µM and the selectivity ratio [9] was 28.4. For the same compound, the Activity (RAW264.7) was “Active”, the inhibition (Lipopolysaccharide (LPS)) was 100% and the Ratio (Staphylococcus aureus [10]) was 2 - 8. The Ratio (Staphylococcus aureus [11]) was 2 - 8, the Ratio (Pseudomonas aeruginosa [12]) was 2 - 8 and the MIC (Escherichia coli [13]) was 4 µM. For the same compound, the MIC (Escherichia coli [14]) was 4 µM, the MIC (Escherichia coli [15]) was 4 µM and the MIC (Escherichia coli [16]) was 4 µM. The MIC (Staphylococcus aureus [17]) was 2 µM, the MIC (Staphylococcus aureus [18]) was 2 µM and the MIC (Staphylococcus aureus [19]) was 4 µM. The MIC (Staphylococcus aureus [20]) was 4 µM.
